Measurements as given in US20250151724A1, “Liquid Soil Treatments Containing Choline” (Harrell's, LLC, priority 2023, published 2025).

Tested on: creeping bentgrass
Assay: Experiment No. 1: growth chamber pot trial, foliar GB and choline under heat and mild drought stress
Type: in vivo
Conditions: for increase of chlorophyll content: day 56, vs control; for Root Viability: TTC method
Experimental: A growth chamber pot trial was conducted as follows. […] The choline used in this study was supplied in the form of choline chloride from Sigma-Aldrich, Inc. (St. Louis, MO). […] These conditions simulated summer putting green stress. The treatments were as follows: • 1. […] GB at 0.5 oz./1,000 ft^2 every 14 days. • 3. GB at 1.0 oz./1,000 ft^2 every 14 days. • 4. […] The rate and source of fertilization for treatments #2-7 was the same as treatment #1 (fertilized control), so all seven treatments received identical fertility input. […] The term “low rate” is used in this description of Experiment No. 1 to refer to 0.5 oz./1,000 ft^2 treatments, while the term “high rate” is used to refer to 1.0 oz./1,000 ft^2 treatments. […] Photochemical efficiency (PE). Photochemical Efficiency was measured with a chlorophyll fluorometer (OS-50II, Opti-Sciences, Inc., Hudson, NH) biweekly based on the Fv/Fm, which is the ratio of variable chlorophyll fluorescence (Fv) to maximum chlorophyll fluorescence (Fm). […] Chlorophyll content. After clipping yields were weighed, leaf tissues were ground into powder, and chlorophyll was extracted in pure acetone content for 72 hours, and the absorbance was measured using a spectrophotometer. • e. Leaf carotenoids were extracted in the same sample as for chlorophyll content and carotenoids were measured using a spectrophotometer (Zhang et al., 2005). • f. Leaf proline content. […] After centrifuging, the supernatant was collected, and proline was analyzed according to Wu et al., 2017. • g. Root viability. […] Root growth characteristics. At the end of trial, roots from each pot were washed and cleaned. Roots were scanned using WinRHIZOTM technology (Regent Instruments Inc., Quebec, Canada), and root length, root surface area, root diameter, and root volume were calculated. (Zhang et al., 2017). • i. Root biomass of each pot was determined at the end of the trial. Roots were dried at 65° C. for 72 hours before being weighed.

Compound: C[N+](C)(C)CCO.[Cl-] [Choline, choline chloride]
- increase of chlorophyll content (0.5 oz): 32.4%
- Clippings dry wt (0.5 oz/1000 ft^2, Total): 0.691bc g/pot
- Carotenoids (0.5 oz/1000 ft^2, day 0): 1.32a mg/g FW
- Chlorophyll (0.5 oz/1000 ft^2, day 0): 3.50a mg/g FW
- Leaf color (1-9, 9 = dark green) (0.5 oz/1000 ft^2, day 0): 7.5a
- PE (Fv/Fm) (0.5 oz/1000 ft^2, day 0): 0.763a
- Proline (0.5 oz/1000 ft^2, day 0): 20.1a mg/g FW
- Carotenoids (0.5 oz/1000 ft^2, day 14): 1.32a mg/g FW
- Chlorophyll (0.5 oz/1000 ft^2, day 14): 3.51a mg/g FW
- Clippings dry wt (0.5 oz/1000 ft^2, day 14): 0.149b g/pot
- Leaf color (1-9, 9 = dark green) (0.5 oz/1000 ft^2, day 14): 7.3abc
- PE (Fv/Fm) (0.5 oz/1000 ft^2, day 14): 0.751a
- Proline (0.5 oz/1000 ft^2, day 14): 46.1a mg/g FW
- Carotenoids (0.5 oz/1000 ft^2, day 28): 1.18ab mg/g FW
- Chlorophyll (0.5 oz/1000 ft^2, day 28): 3.09ab mg/g FW
- Clippings dry wt (0.5 oz/1000 ft^2, day 28): 0.151b g/pot
- Leaf color (1-9, 9 = dark green) (0.5 oz/1000 ft^2, day 28): 6.9a
- PE (Fv/Fm) (0.5 oz/1000 ft^2, day 28): 0.676ab
- Proline (0.5 oz/1000 ft^2, day 28): 24.3b mg/g FW
- Carotenoids (0.5 oz/1000 ft^2, day 42): 1.12a mg/g FW
- Chlorophyll (0.5 oz/1000 ft^2, day 42): 2.76ab mg/g FW
- Clippings dry wt (0.5 oz/1000 ft^2, day 42): 0.159a g/pot
- Leaf color (1-9, 9 = dark green) (0.5 oz/1000 ft^2, day 42): 7.1a
- PE (Fv/Fm) (0.5 oz/1000 ft^2, day 42): 0.631b
- Proline (0.5 oz/1000 ft^2, day 42): 30.2c mg/g FW
- Carotenoids (0.5 oz/1000 ft^2, day 56): 1.12a mg/g FW
- Chlorophyll (0.5 oz/1000 ft^2, day 56): 2.98a mg/g FW
- Clippings dry wt (0.5 oz/1000 ft^2, day 56): 0.233ab g/pot
- Leaf color (1-9, 9 = dark green) (0.5 oz/1000 ft^2, day 56): 7.0a
- PE (Fv/Fm) (0.5 oz/1000 ft^2, day 56): 0.649a
- Proline (0.5 oz/1000 ft^2, day 56): 79.6a mg/g FW
- Root Biomass (0.5 oz/1000 ft^2, end of trial): 1.72ab g/pot
- Root Diameter (0.5 oz/1000 ft^2, end of trial): 0.192a mm
- Root Length (0.5 oz/1000 ft^2, end of trial): 39.7ab mm/cm^3
- Root SA (surface area) (0.5 oz/1000 ft^2, end of trial): 2.40ab cm^3/cm^3
- Root Volume (0.5 oz/1000 ft^2, end of trial): 11.6a dm^3/cm^3
- Root Viability (0.5 oz/1000 ft^2, end of trial): 0.739bcd A490/g FW
- increase of chlorophyll content (1.0 oz): 22.2%
- Clippings dry wt (1.0 oz/1000 ft^2, Total): 0.842ab g/pot
- Carotenoids (1.0 oz/1000 ft^2, day 0): 1.31a mg/g FW
- Chlorophyll (1.0 oz/1000 ft^2, day 0): 3.46a mg/g FW
- Leaf color (1-9, 9 = dark green) (1.0 oz/1000 ft^2, day 0): 7.5a
- PE (Fv/Fm) (1.0 oz/1000 ft^2, day 0): 0.777a
- Proline (1.0 oz/1000 ft^2, day 0): 19.8a mg/g FW
- Carotenoids (1.0 oz/1000 ft^2, day 14): 1.33a mg/g FW
- Chlorophyll (1.0 oz/1000 ft^2, day 14): 3.51a mg/g FW
- Clippings dry wt (1.0 oz/1000 ft^2, day 14): 0.187ab g/pot
- Leaf color (1-9, 9 = dark green) (1.0 oz/1000 ft^2, day 14): 7.5a
- PE (Fv/Fm) (1.0 oz/1000 ft^2, day 14): 0.738ab
- Proline (1.0 oz/1000 ft^2, day 14): 43.5ab mg/g FW
- Carotenoids (1.0 oz/1000 ft^2, day 28): 1.23a mg/g FW
- Chlorophyll (1.0 oz/1000 ft^2, day 28): 3.31a mg/g FW
- Clippings dry wt (1.0 oz/1000 ft^2, day 28): 0.183ab g/pot
- Leaf color (1-9, 9 = dark green) (1.0 oz/1000 ft^2, day 28): 7.3a
- PE (Fv/Fm) (1.0 oz/1000 ft^2, day 28): 0.718ab
- Proline (1.0 oz/1000 ft^2, day 28): 24.6b mg/g FW
- Carotenoids (1.0 oz/1000 ft^2, day 42): 1.17a mg/g FW
- Chlorophyll (1.0 oz/1000 ft^2, day 42): 2.93a mg/g FW
- Clippings dry wt (1.0 oz/1000 ft^2, day 42): 0.223a g/pot
- Leaf color (1-9, 9 = dark green) (1.0 oz/1000 ft^2, day 42): 7.1a
- PE (Fv/Fm) (1.0 oz/1000 ft^2, day 42): 0.683ab
- Proline (1.0 oz/1000 ft^2, day 42): 43.8ab mg/g FW
- Carotenoids (1.0 oz/1000 ft^2, day 56): 1.06a mg/g FW
- Chlorophyll (1.0 oz/1000 ft^2, day 56): 2.75ab mg/g FW
- Clippings dry wt (1.0 oz/1000 ft^2, day 56): 0.249a g/pot
- Leaf color (1-9, 9 = dark green) (1.0 oz/1000 ft^2, day 56): 7.0a
- PE (Fv/Fm) (1.0 oz/1000 ft^2, day 56): 0.664a
- Proline (1.0 oz/1000 ft^2, day 56): 67.6a mg/g FW
- Root Biomass (1 oz/1000 ft^2, end of trial): 1.57ab g/pot
- Root Diameter (1 oz/1000 ft^2, end of trial): 0.192a mm
- Root Length (1 oz/1000 ft^2, end of trial): 39.0ab mm/cm^3
- Root SA (surface area) (1 oz/1000 ft^2, end of trial): 2.32ab cm^3/cm^3
- Root Volume (1 oz/1000 ft^2, end of trial): 11.0a dm^3/cm^3
- Root Viability (1 oz/1000 ft^2, end of trial): 1.019abc A490/g FW
